According to US7862804B2, “Admistration of C-glycoside compounds for depigmenting/whitening the skin” (Loreal, priority 2005, dated 2011):

Tested on: actinic lentigines
Assay: Double blind clinical study versus placebo; dermatologist's clinical evaluation of actinic lentigines
Assay type: in vivo, human
Protocol: A clinical evaluation of actinic lentigines was carried out by a dermatologist at the beginning and at the end of the study according to a scale with 7 levels, including 4 main levels: • 0—absent; • 1—few blemishes; • 2—many blemishes; • 3—a great many blemishes; and 3 intermediate levels (0.5; 1.5; 2.5).
The women applied C-β-D-xylopyranoside-2-hydroxypropane at a concentration of 10% by weight with respect to the total weight of the composition in a proportion of 2 mg/cm^2 or the placebo twice daily for 3 months (98 days) to the pre-marked regions.

CC(O)C[C@@H]1OC[C@@H](O)[C@H](O)[C@H]1O (stereo partly drawn) [C-β-D-xylopyranoside-2-hydroxypropane]
mean score of actinic lentigines on the treated side, end of study (scale with 7 levels, 0-3, 10% by weight, 2 mg/cm^2 topical twice daily for 3 months (98 days), p=0.08): 0.93+/−0.68 | mean score of actinic lentigines on the treated side, before treatment (scale with 7 levels, 0 absent to 3 a great many blemishes, 15 women, phototype III, baseline of treated side): 1.07+/−0.62 | subjects exhibiting a lower score on the treated side, end of study (treated side versus placebo side, after 3 months (98 days) of 10% topical twice daily): 54% | subjects exhibiting a lower score on the treated side, at the beginning of the study (treated side versus placebo side, baseline): 13%
